Converted amounts (≈) assume the structure as drawn. Where two headings read alike, the source gives them in different places.
What was measured:
[1] = Solubility evaluation of PEA and SPE in water and ethanol with emulsifiers (tests A-H); type: physicochemical; conditions: for solubility: thermodynamic from solid; for dissolution behaviour in test H: test H: 50 mg PEA + 50 mg SUC in 95% vol EtOH (about 2.5 g), then 500 mg water, then 50 mg SPE
Method: First of all, an evaluation of the solubility of PEA and SPE in water and ethanol was carried out in the presence of two different concentrations of the two emulsifiers.
In both test C and test D, water was added initially up to 1 ml, then to 2 ml and finally to 5 ml.
In test H, 50 mg of PEA (crushed in the mortar because it was initially in the form of flakes) was placed in a 10 ml test tube and 50 mg of SUC were added.
300 mg of water were then added. At the time of addition, cloudiness was observed, but when heated it returned to being a clear solution again. Another 200 mg of water were then added, and the same behavior was observed. This time, it was necessary to heat for a longer time to obtain a clear solution again.
1) PEA was initially present in the form of flakes. It was reduced in size in the mortar before testing.
2) Emulsifiers were added to PEA before adding solvents.

[2] = data known from the literature, cited from earlier work

SMILES	solubility ([1]; ethanol, organic solvent or mixture, test G: 32 mg PEA, EtOH q.s. to 2 g, read-out: solubility of PEA in ethanol) [mg/mL]	solubility of PEA in water ([1]; test B: 50 mg PEA, H2O q.s. to 1 g)	solubility of PEA in water with emulsifier MGE ([1]; test C: PEA/MGE=10:1 w/w, H2O up to 5 ml)	solubility of PEA in water with emulsifier SUC ([1]; test D: PEA/SUC=10:1 w/w, H2O up to 5 ml)	solubility of PEA in water with emulsifier MGE ([1]; test E: PEA/MGE 1:1 w/w)	solubility of PEA in water with emulsifier SUC ([1]; test F: PEA/SUC 1:1 w/w)	dissolution behaviour in test H ([1]; heated)	Hot solubility ([1]; tests C and D, PEA in water with emulsifier 10:1 w/w, heated)	solubility in ethanol [2] [mg/mL]	solubility in water ([2]; in words)	solubility ([1]; water, test A: 50 mg SPE, H2O q.s. to 1 g, read-out: solubility of SPE in water) [mg/mL]	solubility in water [2] [mg/mL]
CCCCCCCCCCCCCCCC(=O)NCCO [PEA, N-(2-hydroxyethyl)hexadecanamide]	16 (≈ 53.4 mM)	insolubility	does not seem to improve the solubility	does not seem to improve the solubility	comparable to test C	appears to increase slightly, but not sufficiently	perfectly clear solution	does not appear to have significant improvements	16 (≈ 53.4 mM)	insoluble	–	–
NCCCCNCCCN [SPE, N-(3-aminopropyl)butane-1,4-diamine·3HCl]	–	–	–	–	–	–	dissolved immediately	–	–	–	50	50
